{"source": "paper PMC8840081", "about": "“Phenylalanine-Based AMPA Receptor Antagonist as the Anticonvulsant Agent with Neuroprotective Activity—In Vitro and In Vivo Studies” (Molecules, 2022)", "key": {"SH-SY5Y cells": {"tested_on": "SH-SY5Y cells", "test": "ROS assay (DCFH-DA), H2O2-induced ROS accumulation", "assay_type": "cell-based, human", "settings": "compound 50 µM, 500 µM H2O2, 3 h", "procedure": "(§1) All cell culture protocols and assay conditions were applied as we reported previously. SH-SY5Y (ATCC® CRL-2266™) cell line was purchased from ATCC (Manassas, VA, USA). IMR-32 (ATCC® CCL-127™) cell line was kindly provided by the Department of Oncogenomics, Academisch Medisch Centrum, Amsterdam, Holland. Before each test SH-SY5Y or IMR-32 cells were seeded in 96-well plates with transparent bottom at a concentration of 2.5 × 10^4 cells/well in 100 μL of respective cell culture medium and cultured for 24 h to reach 70% confluence. • Cell Viability\nDuring this assay SH-SY5Y cells were preincubated first for 1 h with 250 μM solution of DCFH-DA (Sigma-Aldrich, Inc., St. Louis, MO, USA) in HBSS buffer. After DCFH-DA was removed, cells were washed with HBSS and incubated next for 1 h with 50 μM of compound 1 or 8. Next, the H2O2 was added at final concentration 500 μM. After 3 h of incubation, the fluorescence was measured using a microplate reader EnSpire (PerkinElmer, Waltham, MA, USA) with an excitation wavelength of 486 nm and emission wavelength of 530 nm. All measurements were performed in triplicate and results are shown as mean ± SD."}, "[1]": {"tested_on": "SH-SY5Y neuroblastoma cells", "test": "neuroprotection against 6-OHDA-induced LDH release", "assay_type": "cell-based, human", "settings": "compound 50 µM", "procedure": "as §1\n(§2) CytoTox-ONE™ Homogeneous Membrane Integrity Assay, which based on the LDH release, was purchased from Promega (Madison, WI, USA). SH-SY5Y or IMR-32 cells were seeded in 96-well white plates with transparent bottom. For neuroprotective studies, the cells were preincubated first for 1 h with compound 1, 8 or reference antioxidants AA, TX (all at the concentration of 50 μM) and next the neurotoxin 6-OHDA (Sigma-Aldrich, Inc., St. Louis, MO, USA) was added at final concentration of 50 μM (SH-SY5Y assay) or 200 µM (IMR-32 assay). After 24 h of incubation, the CytoTox-ONE™ was added to each well and the cells were incubated next for 10 min at room temperature. The fluorescence was measured using a microplate reader EnSpire (PerkinElmer, Waltham, MA, USA) with an excitation wavelength of 560 nm and an emission wavelength of 590 nm. All measurements were performed in triplicate and results are shown as mean ± SD. The similar studies were also performed with SH-SY5Y cells injured by 100 μM of 6-OHDA (Figure S1, Supporting Materials). • ROS Assay"}, "[2]": {"tested_on": "IMR-32 neuroblastoma cells", "test": "neuroprotection against 6-OHDA-induced LDH release", "assay_type": "cell-based, human", "settings": "IMR-32, compound 50 µM, 1 h pretreatment, 200 µM 6-OHDA, 24 h", "procedure": "as §1, §2"}, "native AMPA receptors": {"target": "native AMPA receptors", "settings": "native AMPA receptors, rat brain membranes, mean of three experiments, cited from earlier work"}, "[3]": {"test": "ferric reducing antioxidant power (FRAP) assay", "settings": "% of ascorbic acid activity; compounds and AA at 1 mM", "procedure": "The total antioxidant potential of aryl-substituted phenylalanine derivatives was determined using FRAP assay. The FRAP reagent was prepared first by mixing acetate buffer (300 mM, pH 3.6), a solution of 10 mM TPTZ (2,4,6-tripyridyl-s-triazine, Sigma-Aldrich, Inc., St. Louis, MO, USA) in 40 mM HCl and 20 mM of iron (III) chloride hexahydrate (FeCl3 × 6H2O, Chempur, Piekary Śląskie, Poland) at 10:1:1 (v/v/v). The FRAP reagent (190 μL) and 1 mM of tested compound (10 μL) was added next to each well, mixed and incubated for 30 min. The absorbance was measured using a microplate reader EnSpire (PerkinElmer, Waltham, MA USA) at 593 nm. AA (1 mM, AMARA, Kraków, Poland) was used as the reference antioxidant. The results were expressed as % of ascorbic acid activity (%AAA). Analyses were performed in triplicate. • ORAC-FL"}, "Human MAO-B": {"target": "T1, Human MAO-B (Homo sapiens, UniProt P27338)", "T1 construct": "purchased Merck KGaA (Darmstadt, Germany)", "T1 sequence (P27338 1-520)": "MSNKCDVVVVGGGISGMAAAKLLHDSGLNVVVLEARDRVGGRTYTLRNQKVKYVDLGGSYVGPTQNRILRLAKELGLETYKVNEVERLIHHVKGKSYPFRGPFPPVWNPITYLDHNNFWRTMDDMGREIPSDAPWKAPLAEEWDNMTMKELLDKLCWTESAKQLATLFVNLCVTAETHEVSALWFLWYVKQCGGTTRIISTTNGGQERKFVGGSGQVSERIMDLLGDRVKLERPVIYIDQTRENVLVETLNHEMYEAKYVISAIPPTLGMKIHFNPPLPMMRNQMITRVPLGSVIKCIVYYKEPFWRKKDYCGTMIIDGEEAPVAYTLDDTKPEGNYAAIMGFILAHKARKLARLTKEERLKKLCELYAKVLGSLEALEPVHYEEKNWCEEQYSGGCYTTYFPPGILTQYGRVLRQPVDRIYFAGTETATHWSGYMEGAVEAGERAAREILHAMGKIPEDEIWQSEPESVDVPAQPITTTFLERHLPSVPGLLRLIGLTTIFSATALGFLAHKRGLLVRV", "test": "MAO-B inhibition, Amplex Red Monoamine Oxidase kit", "assay_type": "biochemical", "settings": "1 µM compound; % of full inhibition (pargyline 10 µM)", "procedure": "Human MAO-B was purchased from Merck KGaA (Darmstadt, Germany). The activity of compound 1 and 8 was measured in the presence of p-tyramine (200 μM). […] Firstly, inhibitors’ activity was measured in a concentration of 1 μM. […] For compounds that inhibited the enzyme by more than 50% further studies were conducted to obtain IC50 from concentration–response curves. All calculations were made in Microsoft Excel and GraphPadPrism software. All experiments were performed in duplicate and data are expressed as mean ± SEM."}, "[4]": {"test": "oxygen radical absorbance capacity fluorescent (ORAC-FL) assay", "settings": "Trolox equivalent, calculated at 5 µM of compounds and Trolox", "procedure": "The ORAC-FL was performed according to procedure described in the literature. The reagents used in this assay, TX, fluorescein and 2,2′-azobis(2-amidinopropane) dihydrochloride (AAPH), were purchased from Sigma-Aldrich, Inc., St. Louis, MO, USA. The prepared ORAC-FL reagent consisted of 0.3 μM of fluorescein and 100 µM of AAPH dissolved in PBS buffer. The compounds and the reference antioxidant TX were tested at the concentration 2.5 µM and the results were compared to the blank in which no antioxidant was present. The assays were performed in black 96-well plates. The fluorescence readings were taken by a microplate reader EnSpire (PerkinElmer, Waltham, MA, USA) every minute for a duration of 240 min. The excitation wavelength was 485 nm and the emission wavelength was 520 nm. The area under the fluorescence decay curve (AUC) was calculated next by GraphPad Prism™ software (version 5.01, San Diego, CA, USA). All measurements were performed in triplicate. The TX equivalent (TE) was calculated next using the following Equation (1):TE = [(AUCsample − AUCblank)/(AUCTX − AUCblank)] × [CTX/Csample](1)"}, "[5]": {"tested_on": "SH-SY5Y neuroblastoma cells", "test": "cell viability, MTS assay", "assay_type": "cell-based, human", "settings": "24 h incubation, 1–100 µM", "procedure": "as §1\n(§3) The CellTiter 96® AQueous Non-Radioactive Cell Proliferation Assay was purchased from Promega (Madison, WI, USA). After 24 h of cells incubation with compound 1 or 8 in the concentrations range 1–100 µM the MTS-based labeling mixture was added to each well and cells were incubated under the same conditions for 2–3 h. The absorbance was measured using a microplate reader EnSpire (PerkinElmer, Waltham, MA, USA) at 490 nm. All measurements were performed in triplicate and results are shown as mean ± SD. • Lactate Dehydrogenase Test"}, "[6]": {"tested_on": "IMR-32 neuroblastoma cells", "test": "cell viability, MTS assay", "assay_type": "cell-based, human", "settings": "IMR-32, 24 h incubation, 1–100 µM", "procedure": "as §1, §3"}}, "note": "pKi: −log10 of the molar value.", "data": [{"smiles": "Nc1c(Cl)cc(CC(N)C(=O)O)cc1-c1ccc(O)cc1", "note": "(centres unmarked) [Compound 8]", "values": [{"measurement": "intracellular ROS level", "setting": "SH-SY5Y cells", "value": "statistically significant decrease"}, {"measurement": "6-OHDA-induced release of LDH (neuroprotection)", "setting": "[1]; 100 µM 6-OHDA", "value": "neuroprotective effect was not observed"}, {"measurement": "6-OHDA-induced release of LDH (neuroprotection)", "setting": "[1]; 1 h pretreatment, 50 µM 6-OHDA, 24 h", "value": "no statistically significant neuroprotective effect"}, {"measurement": "6-OHDA-induced release of LDH (neuroprotection)", "setting": "[2]", "value": "no statistically significant neuroprotective effect"}, {"measurement": "[3H]AMPA Ki", "setting": "native AMPA receptors", "value": "lack of detectable AMPA receptor affinity"}, {"measurement": "pKi", "setting": "native AMPA receptors; read-out: [3H]AMPA Ki", "value": "< 4.00"}, {"measurement": "FRAP (%AAA)", "setting": "[3]", "value": 48.19, "unit": "%AAA"}, {"measurement": "MAO-B inhibition, screening", "setting": "Human MAO-B", "value": "No inhibitory activity"}, {"measurement": "ORAC (TE)", "setting": "[4]", "value": 7.56, "unit": "TE"}, {"measurement": "cell viability", "setting": "[5]", "value": "no influence on cell viability"}, {"measurement": "cell viability", "setting": "[6]", "value": "no influence on cell viability"}]}]}
